Data reported in the supplement of paper PMC11451515.

Test system: NOMO1
Experiment: cell viability relative to DMSO control; higher = less cytotoxic
Settings: 48 h
Procedure, shortened: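 Leukemia cells (NOMO1 or SEM, 500 cells/well; P12-Ichikawa, 1000 cells/well) were seeded in 5 μl in 1536-well plates after at least four passages of adaptation to each medium. They received library compounds in DMSO by pin dosing, 11 threefold points from 47 μM to 0.79 nM. Luminescence with CellTiter-Glo One was read after 48 h at 37°C. Viability is stated per plate relative to DMSO wells, with cell-free wells as background.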

[1] = RPMI 5 mM glucose + 10% FBS, 0.000781 µM
[2] = RPMI 5 mM glucose + 10% FBS, 0.00234 µM
[3] = RPMI 5 mM glucose + 10% FBS, 0.00702 µM
[4] = RPMI 5 mM glucose + 10% FBS, 0.0211 µM
[5] = RPMI 5 mM glucose + 10% FBS, 0.0632 µM
[6] = RPMI 5 mM glucose + 10% FBS, 0.19 µM
[7] = RPMI 5 mM glucose + 10% FBS, 0.569 µM
[8] = RPMI 5 mM glucose + 10% FBS, 1.71 µM
[9] = RPMI 5 mM glucose + 10% FBS, 5.12 µM
[10] = RPMI 5 mM glucose + 10% FBS, 15.4 µM
[11] = RPMI 5 mM glucose + 10% FBS, 46.1 µM

C[C@]12CC[C@@H]3c4ccc(O)cc4C[C@@H](CCCCCCCCC[S+]([O-])CCCC(F)(F)C(F)(F)F)[C@H]3[C@@H]1CC[C@@H]2O (stereo partly drawn) gave a cell viability [1] of 103%, a cell viability [2] of 118% and a cell viability [3] of 104%. It also gave a cell viability [4] of 131%, a cell viability [5] of 121% and a cell viability [6] of 113%. It also gave a cell viability [7] of 107%, a cell viability [8] of 104% and a cell viability [9] of 115%. It also gave a cell viability [10] of 118% and a cell viability [11] of 104%.
Nc1ncnc2c1c(-c1cnc3[nH]ccc3c1)nn2C1CCCC1 gave a cell viability [1] of 108%, a cell viability [2] of 120% and a cell viability [3] of 141%. The cell viability [4] was 135%, the cell viability [5] was 119% and the cell viability [6] was 114%. It also gave a cell viability [7] of 112%, a cell viability [8] of 93.5% and a cell viability [9] of 66.7%. For the same compound, the cell viability [10] was 54.4%, the cell viability [11] was 45.4% and the cell viability (RPMI 5 mM glucose + 10% dialyzed FBS, 0.000781 µM) was 106%. It also gave a cell viability (RPMI 5 mM glucose + 10% dialyzed FBS, 0.00234 µM) of 119%, a cell viability (RPMI 5 mM glucose + 10% dialyzed FBS, 0.00702 µM) of 103% and a cell viability (RPMI 5 mM glucose + 10% dialyzed FBS, 0.0211 µM) of 109%. For the same compound, the cell viability (RPMI 5 mM glucose + 10% dialyzed FBS, 0.0632 µM) was 131%, the cell viability (RPMI 5 mM glucose + 10% dialyzed FBS, 0.19 µM) was 100% and the cell viability (RPMI 5 mM glucose + 10% dialyzed FBS, 0.569 µM) was 104%. The cell viability (RPMI 5 mM glucose + 10% dialyzed FBS, 1.71 µM) was 81.7%, the cell viability (RPMI 5 mM glucose + 10% dialyzed FBS, 5.12 µM) was 61.8% and the cell viability (RPMI 5 mM glucose + 10% dialyzed FBS, 15.4 µM) was 52.8%. The cell viability (RPMI 5 mM glucose + 10% dialyzed FBS, 46.1 µM) was 45.8%.
